Data on one compound can be found in article doi:10.1101/2023.02.06.527370, “A remarkable transformation catalyzed by a domain-of-unknown-function 692 during the biosynthesis of a new RiPP natural product” (bioRxiv, 2023).

SMILES strings stand for the structures.

The target of this experiment is T1, ChrHI (ChrH with ChrI) (Chryseobacterium sp. JM1, UniProt A0A086ASD2).
T1 construct: gene IW22_14845
Briefly: MALDI-TOF MS of in vitro reaction products after LysC digestion. The format is biochemical. The settings on record: precursor peptide ChrA as co-substrate, DTT, aerobic, iron-containing enzyme; methyl donor; also run with 13CD3-SAM (labelled compound).

T1 sequence (A0A086ASD2 entry or part of it): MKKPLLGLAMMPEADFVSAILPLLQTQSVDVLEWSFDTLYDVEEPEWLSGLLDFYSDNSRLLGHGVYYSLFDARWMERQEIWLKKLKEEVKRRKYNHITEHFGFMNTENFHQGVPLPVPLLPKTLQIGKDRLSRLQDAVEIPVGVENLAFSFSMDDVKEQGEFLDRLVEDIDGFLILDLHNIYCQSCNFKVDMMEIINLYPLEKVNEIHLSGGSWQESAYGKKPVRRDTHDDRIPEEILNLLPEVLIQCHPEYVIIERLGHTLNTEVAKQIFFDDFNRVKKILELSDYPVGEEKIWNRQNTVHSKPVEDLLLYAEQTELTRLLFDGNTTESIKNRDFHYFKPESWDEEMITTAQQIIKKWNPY

Consider `C[S+](CC[C@H](N)C(=O)O)C[C@H]1O[C@@H](n2cnc3c(N)ncnc32)[C@H](O)[C@@H]1O` (stereo partly shown) [SAM, S-adenosylmethionine], for which the “MALDI-TOF MS of in vitro reaction products after LysC digestion” value was “SAM is the methyl donor in the posttranslational modification of ChrA by ChrHI”.
